Laboratory results as given in patent US20150174144A1, “TETRACYCLINE COMPOUNDS FOR TREATING NEURODEGENERATIVE DISORDERS” (PARATEK PHARMACEUTICALS, INC., priority 2012, published 2015).

Tests used:
[1] = system: ferric iron-induced lipid peroxidation among rat brain tissue; assay: Ferric iron-induced lipid peroxidation in rat brain tissue; format: biochemical
Description: Tetracycline compounds were tested in an in vitro assay of ferric iron-induced lipid peroxidation among rat brain tissue.

GLP phototoxicity assay = assay: GLP phototoxicity assay
Description: (§1) The compound was also shown to be negative in a GLP phototoxicity assay. […] Both 14-day acute toxicity and 28-day toxicology study were performed in rats with Compound 1 along with minocycline for comparison. Animals were administered daily oral doses from 15 to 150 mg/kg for up to 4 weeks followed by a recovery period.

bacterial ribosome = assay: Transcription/translation (TnT) in vitro assay of bacterial protein synthesis; format: biochemical
Description: The antibacterial activity of Compound 1 was evaluated against comparator compounds minocycline and doxycycline. Test compounds are considered to have antibacterial activity if they inhibit bacterial growth at test concentrations below 4 μM. […] Further, mechanistic evidence of their antibacterial activity was evaluated using the transcription/translation (TnT) in vitro assay which directly measures the bacterial cellular efficiency of protein synthesis with and without test compounds present.

Fmr1 KO2 mice = assay: Contextual fear conditioning, mouse model of Fragile X Syndrome; format: in vivo; details: acute stress conditions
Description: The purpose of this study was to test Compound 1 for treating Fragile X Syndrome. This study utilized Fmr1 KO mice, an animal model of Fragile X Syndrome.
The Fmr1 KO mice (C57BL/6 background) were kindly provided the FRAXA Foundation. Mice were housed in groups of the same genotype in a temperature and humidity controlled room with a 12-h light-dark cycle (lights on 7 am to 7 pm). Testing was conducted during the light phase. Food and water were available ad libitum. Testing was conducted on Fmr1 KO mice and their wild-type littermates. They were housed in commercial plastic cages purchased in the UK. Experiments were conducted in line with the requirements of the UK Animals (Scientific Procedures) Act, 1986.
The dosing protocol used is shown below. Mice were dosed at 6-7 weeks by intraperitoneal (i.p.) infusion by osmotic pump (0.5 μl/hour) for 1 week. The solution of 0.9% saline was used as a vehicle, and 10 mice were dosed per each group.
Freezing as a species-specific response to fear was measured.

[2] = system: focal cerebral ischemia (temporary MCA occlusion); assay: Rat stroke model, 90 min temporary MCA occlusion; format: in vivo, Male Wistar rats; details: for Neurological score / Infarct volume (Means ± SD): temporary; for Infarct volume (Means ± SD): 24 hr after MCAO; for Effect on infarct volume: temporary occlusion
[3] = 14-day acute toxicity and 28-day toxicology study in rats; format: in vivo
Description: as §1

[4] = Preliminary embryofetal DRF study in rats; format: in vivo; details: high dose of 250 mg/kg
MOG peptide-induced EAE = MOG peptide-induced EAE in mice; format: in vivo, C57BL/6 mouse; details: mouse, i.p. daily from day 10
Source text: The inhibitory activity of Compound 1 was characterized in both mouse and rat models of EAE. Mice were immunized s.c. with myelin oligodendrocyte glycoprotein (MOG) peptide 35-55 in CFA and later injected i.v. with Pertussis toxin. Mice were randomized at day 10 and given compound i.p. Compounds were subsequently administered daily and the animals assessed for clinical score. Mice were scored as follows: 0=no disease; 1=limp tail; 2=paralysis of one or both hind limbs; 4=paralysis of both hind- and forelimbs. […] Rats were dosed daily i.p. with compound starting day 9. Rats were scored daily and cumulative scores were determined by adding the average daily scores over the experimental period. […] The average daily scores+/−SEM and the cumulative average scores are shown. Cumulative average scores were determined by adding the average daily scores over the experimental period.

[5] = system: hippocampal neurons from Fmr1 KO mice; assay: Dendritic spine development in hippocampal primary cultures; format: cell-based, mouse; details: FX hippocampal primary cultures, 20 μM, 17 hour treatment, 18 DIV
Description: The purpose of this study was to investigate the direct effects of tetracycline compounds, such as minocycline and Compound 1, on dendritic spine development in the cell derived from the mouse model of Fragile X Syndrome (FXS) and their wild-type litter mate control mouse embryos.
The compartmentalized cell culture was used in the experiments. Neuronal primary cultures of the hippocampus at embryonic day 16 (E16) were prepared from Fmr1 KO and WT litter mate control mouse embryos, and three independent cultures were used for the analysis. The in vitro system with […] was used to monitor dendritic spine morphogenesis during a time-course of culture, and immunostaining with synaptophysin was used to distinguish presynaptic boutons. The dendritic spines were usually formed between 7 and 14 days in vitro (DIV). By 14 DIV most dendiritic protrusions were spines; however, their maturation continued until 21 DIV. The effects of tetracycline compounds were evaluated at 18 DIV. Confocal Imagining analysis was performed at the University of Chile imaging center. Quantitative analysis of dentritic spine length, size distribution for dendritic spine heads and morphology of the hippocampal neurons from WT control and Fmr1 KO mice was performed after 17 hour treatment with 20 μM tetracycline compounds or with PBS control.

[6] = 20 mg/kg i.v. at 30 min, 6 hr after MCAO
[7] = 40 mg/kg i.v. at 60 min, 6 hr after MCAO
[8] = 40 mg/kg i.v. at 3 hr, 8 hr after MCAO

CCc1cc(N(C)C)c2c(c1O)C(=O)C1=C(O)[C@]3(O)C(=O)C(C(N)=O)=C(O)[C@@H](N(C)C)[C@@H]3C[C@@H]1C2 [Compound 1]
Lipid peroxidation (% of Control) ([1]; 1.0 μM): 92 % of Control
Lipid peroxidation (% of Control) ([1]; 10 μM): 68 % of Control
Lipid peroxidation (% of Control) ([1]; 100 μM): 56 % of Control
GLP phototoxicity assay result (GLP phototoxicity assay): negative
Protein Synthesis Inhibition (IC50) (bacterial ribosome): >100 µg/mL
Contextual fear conditioning, learning deficit (freezing) (Fmr1 KO2 mice): failed to fully rescue the learning deficit
Neurological score [2, 6]: 1.5 ± 0.5
Infarct volume (Means ± SD) [2, 6]: 139.2 ± 32.2 mm3
Neurological score [2, 7]: 1.3 ± 0.5
Infarct volume (Means ± SD) [2, 7]: 125.9 ± 49.9 mm3
Neurological score [2, 8]: 1.4 ± 0.5
Infarct volume (Means ± SD) [2, 8]: 172.8 ± 45.3 mm3
Effect on infarct volume ([2]; treatment initiated three hours post occlusion): did not demonstrate an ability to reduce infarct volume
Effect on infarct volume ([2]; treatment started at 30 or 60 min after MCA occlusion): statistically significant reductions in infarct volume
Thyroid tissue staining ([3]; at comparable doses to minocycline): little or no thyroid tissue staining
Adverse effects ([3]; daily oral doses from 15 to 150 mg/kg for up to 4 weeks): Few adverse effects were observed at any dose
Effects on fetal body weight [4]: only slight effects on fetal body weight
Effect on clinical course of EAE (onset, maximum disease severity) (MOG peptide-induced EAE): both delayed the onset and inhibited the maximum disease severity more potently than minocycline
Spine number [5]: 0.28±0.05
